This is an account of results in EP0151964A2, “New derivatives of alpha-amino-gamma-butyrolactone, method for the preparation thereof and pharmaceutical compositions containing them” (priority 1984, dated 1985).

Data set [1] can be described thus: Sedation of laboratory animals. Format: in vivo. The following applies: dose of about 50 mg/kg. The protocol:
The compound was administered to laboratory animals at a dose of about 50 mg/kg. The animals were sedated.
A good yield of α-n-pentylcarbonyl-amino-γ-butyrolactone is ob= tained. The compound was administered to laboratory animals at a dose of about 50 mg/kg. The animals were sedated.

Data set [2] can be described thus: Enhancement of the hypnotic effect of sodium pentobarbital (loss of righting reflex). Type of data set: in vivo. As to conditions: mouse. On the procedure: 40 mg, kgof sodium pentobarbital was injected intraperitoneal ly into mice and note was taken of animals losing the righting re= flex and for how long. Other mice received a preliminary treat= ment with PTT-01 at a dosage of 25 and 50 mg/kg, intraperitoneally and thereafter sodium pentobarbital was given.

The nature of data set [3]: Antagonism towards electroshock (maximal electroshock, MES). The following applies: mouse; for Number of animals with Clonic convulsions / Number of animals with Tonic convulsions: treated animals in parentheses. Type of data set: in vivo. On the procedure: Electroshock was produced in mice by applying ear electrodes. Stimulation parameters which could induce the maximal electroshok (MES) were adopted. This was obtained by applying rectangular input shocks for 0.6 seconds. Each input lasted […] and the input frequency was 25/sec. Phenobarbital sodium was used as control substance. […]

A short description of data set [4]: Antagonism towards d-amphetamine: amphetamine-induced hypermobility. Type of data set: in vivo, mice. Also noted: reference not given here. On the procedure: (§1) This particular feature of the compound could be deduced from the influence the compound exerted on: (a) d-amphetamine toxicity to mice kept in group, and (b) response time of une avoidance re= flex.
Six groups of 4 mice each were treated with 5 mg/kg of d-am= phetamine sulfate by intraperitoneal administration. Six groups of 4 animals each received the same dose of d-amphetamine sulfate plus 25 mg/kg of PTT-01 intraperitoneally, 15 minutes after d-am= phetamine sulfate; six groups of 4 animals each received saline solution and were used as controls. Spontaneous mobility was ob= served in every animal according to the procedure described herein before. The number of times each animal crossed the light beam throughout the 10 minutes test was noted. As appears from Table 4, the treatment with PTT-01 aid not prevent d-amphetamine from stimulating spontaneous mobility.

The nature of data set [5]: Acute toxicity in animals. Format: in vivo, rats ( Wistar-Morini Strain). As to conditions: for LD50: aqueous 1% suspension of tragacanth gum. On the procedure:
PTT-01 was administered to adult rats ( Wistar-Morini Strain) of both sexes after fasting overnight. It was administered in an aqueous 1% suspension of tragacanth gum orally by gastric probe or intraperitoneally.

Data set [6] is described as follows: Subacute toxicity in animals. Type of data set: in vivo. As to conditions: 8 rats, 50 mg/kg daily for 6 consecutive days. The protocol: Accor= dingly, 8 rats were given 50 mg/kg daily for 6 consecutive days.
Data set [7] is described as follows: Spontaneous mobility (interruptions of a light beam in 10 minutes). Type of data set: in vivo. The following applies: mice, controls fell to 71.4%. The protocol: Several groups of 4 mice each were placed in an apparatus de signed to provide a measure of spontaneous mobility by counting the number of interruptions of a light beam for a period of 10 mi= nutes. After preliminary measurement of mobility, animals were injected with PTT-01 (25 and 50 mg/kg) intraperitoneally. Con= trols received saline solution. Then minutes thereafter the mea= surement of mobility was repeated. Five groups of mice were used as controls and 6 other groups were treated with varying doses of PTT-01.

A further data set can be described thus: Rotating bar test. As to conditions: trained mice, group of five. Format: in vivo. The protocol:
Mice were trained to remain on a rotating bar for at least 3 minutes. A group of five of the trained mice were given an intra peritoneal injection of 25 mg/kg of PTT-01 in a 1% suspension of tragacanth gum. Another group of five mice were given an intra= peritoneal injection of 50 mg/kg of PTT-01 in a 1% suspension of tragacanth gum. All control animals stayed on the bar for 3 mi= nutes.

Data set [8] is described as follows: Mortality from d-amphetamine in mice kept in group. As to conditions: eight grouped mice, same amount (25 mg/kg) i.p. 10 minutes before 10 mg/kg d-amphetamine sulfate i.p.; all eight controls died. Format: in vivo. The protocol: as §1
However, PTT-01 reduced mortality from d-amphetamine. The same amount of PTT-01 was injected intraperitoneally. Then, 10 minutes later, an intraperitoneal injection of 10 mg/kg of d-amphe tamine sulfate was administered. Eight animals were used in this test and kept in a 25 x 20 x 14 om cage in an air-conditioned room (20°C, 6C,- humidity). […]

Data set [9] is described as follows: Avoidance reflex (response time in two-chamber conditioning cage). Type of data set: in vivo. The following applies: four conditioned mice, controls 53.3±4.5 sec.
Description: as §1
A conditioning cage consisting of two chambers was used, with free access between the chambers. The floor of one compartment was electrified to make it possible to deliver a mild shook. Eice were conditioned by first giving a warning signal and then,af ter a short period of time the shock was applied. Mice learned to leave the electrified compartment after the warning bell soun= ded were then judged to be conditioned. The average period of ti me, in this experiment, for controls (4) within which they leave the compartment was 53.3±4.5 sec. Four conditioned mice were given PTT-01 intraperitoneally(25 mg/kg); time within which they left the compartment was 60.6 + 3.9 sec. Four conditioned mice treat= ed with 50 mg/kg of PTT-C1 left the compartment only after 77.5 ± 2.7 sec.

Data set [10] in a line: Antagonism towards strychnine: protection from death caused by hypodermic injection. Type of data set: in vivo. As to conditions: mouse, single oral 50 mg/kg dose, 1.2 mg/kg strichnine sulfate, groups of six. The protocol: (§2) This type of antagonism was evaluated in the mouse as follows: (1) protection from death caused by a hypodermic injection of strychnine; (2) evaluation of the LD50 of strychnine both in mice treated and untreated with PTT-01 and (3) influence on the time re quired to cause animals to die by slow intravenous perfusion of strychnine.
Groups of six mice were used. Results are given in Ta= ble 5.

Data set [11] in a line: Antagonism towards strychnine: time to death under slow intravenous infusion. Type of data set: in vivo. As to conditions: mice; for mean infusion time to cause death: infusion rate 0.25 ml/min. On the procedure: as §2
(3) continuous intravenous infusion at constant rate (0.4 ml/min) of a strychnine sulfate solution (26.66 mg/l) was carried out by injection in a tail vein in mice until they died. One group of aninals received 50 mg/kg of PTT-01 as preliminary treatment 15 mi nutes before the beginning of the infusion. The mean infusion ti me to cause six controls to die was 134 ± 3.2 seconds (mean + SE). The mean infusion time required to obtain the same effect in animals pretreated with PTT-01 was 210 ± 6.1 seconds.
In another experiment the infusion rate of strychnine was low ered to 0.25 ml/min. Under this conditions, the mean infusion ti me was 246 ± 3.1 seconds in the case of controls (six animals) and 338 ± 24.3 seoondss in treated animals.
When the above mentioned infusion rate was maintained, while redu= cine the amount of PTT-01 to 25 mg/kg, the mean infusion time was 260 + 13.4 seconds in controls and 360 + 21.2 seconds in the treat ed animals.

The nature of data set [12]: Influence on the electromyogram, rabbit with cortical electrodes. Type of data set: in vivo. The following applies: electrodes implanted in cerebral cortex, 50 mg/kg intraperitoneal, similar to 30 mg/kg intravenous phenobarbital sodium. The protocol:
The effect was similar to the effect caused by 30 mg/kg of intravenous phenobarbital sodium.

Data set [13] in a line: Electrode recording in the unrestrained cat. Type of data set: in vivo. As to conditions: permanent electrodes, 50 or 100 mg/kg.
A short description of data set [14]: Sleep in cats conditioned to sleep for 8 hours. Type of data set: in vivo. The following applies: 25 and 35 mg/kg.
A short description of data set [15]: Diuresis in water-loaded rats. Type of data set: in vivo.
A further data set in a line: Choleresis. Type of data set: in vivo. The following applies: single 50 mg/kg oral dose. The protocol: (§3) The effect of a single 50 mg/kg oral dose of PTT-01 was deter mined on (a) diuresis in water-loaded rats, (b) choleresis, (c) ex cretion rate of intravenously injected bromosulphonphthalein in bi le, (d) arterial blood pressure.
Data set [16] can be described thus: Excretion rate of intravenously injected bromosulphonphthalein in bile. Format: in vivo. The following applies: single 50 mg/kg oral dose. On the procedure: as §3
The nature of a further data set: Arterial blood pressure. Type of data set: in vivo. The following applies: single 50 mg/kg oral dose. On the procedure:
as §3

[17] abbreviates: 40 mg/kg i.p. 10 minutes before electroshock.
Where [18] appears, read: I 25 mg/kg + II 40 mg/kg intraperitoneally.
The mark [19] stands for this setting: I 50 mg/kg + II 40 mg/kg intraperitoneally.
Setting [20] is: 25 mg/kg i.p. 10 minutes before electroshock.

On to `CC(C)CC(=O)NC1CCOC1=O` (stereo not drawn) [Example 2, α-isobutylcarbonyl-amino-γ-butyrolactone], for which the sedation entry in data set [1] is listed as “sedated”.
Still for that read-out and setting: the value for `CCCCCC(=O)NC1CCOC1=O` (stereo not drawn) [Example 3, α-n-pentylcarbonyl-amino-γ-butyrolactone] was “sedated”.
As for `CCCC(C)C1(CC)C(=O)NC(=O)NC1=O` (stereo not shown) [II, sodium pentobarbital, reference compound], in [2] (II 40 mg/kg intraperitoneally alone), the “Animals under hypnosis/ treated” value is on record as 3/4. The “Duration of hypnosis in minutes (m± SE)” value in data set [2] (II 40 mg/kg intraperitoneally alone, zero assigned to animals not losing the righting reflex) came to 3.25 ± 3.4 min.
For the compound `CCC1(c2ccccc2)C(=O)NC(=O)NC1=O` [Phenobarbital Na, Phenobarbital sodium, reference compound], in [3] (setting [17]), the “Number of animals Dead” value is recorded as 0/8, the “Number of animals with Clonic convulsions” value is 8 (8) and the “Number of animals with Tonic convulsions” value is listed as 0 (8).
Turning to `C[C@H](N)Cc1ccccc1` [d-amphetamine, reference compound], in [4] (mouse, in vivo), the “Mean number of crossings (± SE) in 10 minutes” value was 657 ± 59.
Take “α-n-butylcarbonyl-amino-γ-butyrolactone [PTT-01]”: the effect in rats result in [5] (50 mg/kg by oral route) is “did not cause any particular effect”; in [5] (100 mg/kg by oral route) it was “mild sedative effect”. The “duration of the sedative and hypnotic effects” value in data set [5] (rats, acute toxicity doses, animal returned to normal) was “not long lasting”. The sedative effect result in data set [5] (rats, from the lowest intraperitoneal dose) is “the sedative effect was obtained”; in data set [5] (rats, highest oral dose), “produced a sedative effect”. Moreover, the “loss of the righting reflex” value is “not cause the loss of the righting reflex” in data set [5] (rats, highest oral dose) and “the loss of the righting reflex occurred” in data set [5] (rats, intraperitoneal, 1 g/kg). Also, the LD50 entry in data set [5] (rats, intraperitoneally) is on record as “more than 2 g/kg”; in data set [5] (rats, orally by gastric probe), “more than 2 g/kg”. Besides, the “sedative effect or other abnormal symptoms” value in data set [6] is on record as “No sedative effect or other abnormal symptoms were observed”. The “Animals under hypnosis/ treated” value in data set [2] (setting [18]) and in data set [2] (setting [19]) was 4/4 throughout. For the same compound, the “Duration of hypnosis in minutes (m± SE)” value in data set [2] (setting [18]) is 52.5 ± 13 min; in [2] (setting [19]) it was 75.2 ± 21.6 min. For the same compound, the entries for the “mobility, % of the base-line values” in [7] (25 mg/kg intraperitoneally) and in [7] (50 mg/kg intraperitoneally) were 31.9% and 23.1%, respectively. Also, the “mice staying on the bar for 3 minutes” value in the data set “Rotating bar test” (25 mg/kg intraperitoneal) is on record as “two out of the five”; in the data set “Rotating bar test” (50 mg/kg intraperitoneal), “none”. Moreover, the “Mean number of crossings (± SE) in 10 minutes” value in data set [4] (mice, d-amphetamine 5 mg/kg i.p. + 25 mg/kg i.p. given 15 minutes after d-amphetamine) was 836 ± 100. Besides, the animals died in [8] was 5 of the eight. Besides, the “time within which they left the compartment” value in data set [9] (25 mg/kg intraperitoneally) was 60.6 + 3.9 sec; in [9] (50 mg/kg), 77.5 ± 2.7 s. In [10], the “protection against the lethal effect of strichnine sulfate” value is “protected all the animals”. In addition, the “mean infusion time to cause death” value was 360 + 21.2 seconds in data set [11] (25 mg/kg, controls 260 + 13.4) and 338 ± 24.3 s in data set [11] (50 mg/kg, controls 246 ± 3.1). Moreover, the “mean infusion time to cause death (mean + SE)” value in data set [11] (50 mg/kg 15 minutes before infusion, strychnine sulfate 26.66 mg/l at 0.4 ml/min, controls 134 ± 3.2) amounted to 210 ± 6.1 s. The “Number of animals Dead” value in [3] (setting [20]) is given as 0/8. Also, in data set [3] (setting [20]), the “Number of animals with Clonic convulsions” value is listed as 8 (8). Moreover, in data set [3] (setting [20]), the “Number of animals with Tonic convulsions” value is reported as 0 (8). Moreover, the electromyographic tracing result in data set [12] is reported as “tracing to become flat”. The “sedation and electromyographic alterations” value in [13] was “sedation oc= curred without electromyographic alterations”. Also, the “number of cases of REM sleep” value in [14] was “reduced the number of cases of REM sleep”. Moreover, in [14], the total sleeping time result is “did not modify the total sleeping time”. Besides, the “diuresis in water-loaded rats” value in data set [15] (single 50 mg/kg oral dose) is “No treatment caused any signi= ficant change”. Further, in data set [15] (water-loaded rats, daily oral dose of 50 mg/kg for five subsequent days), the “rate of urine excretion” value is “slowed”. Also, the choleresis entry in the data set “Choleresis” is recorded as “No treatment caused any signi= ficant change”. For the same compound, the “excretion rate of intravenously injected bromosulphonphthalein in bile” value in data set [16] is listed as “No treatment caused any signi= ficant change”. For the same compound, the arterial blood pressure result in “Arterial blood pressure” was “No treatment caused any signi= ficant change”.
